Measurements as given in ChEMBL document CHEMBL1806420, “Design, synthesis and antimycobacterial evaluation of novel 3-substituted-N-aryl-6,7-dimethoxy-3a,4-dihydro-3H-indeno[1,2-c]pyrazole-2-carboxamide analogues” (Bioorg Med Chem Lett, 2011).
Values after ≈ are worked out from the molar mass of the structure shown.

These compounds were tested on Mycobacterium tuberculosis (assay: Ratio of isoniazid MIC to compound MIC for isoniazid-resistant Mycobacterium tuberculosis).
Format: functional

SMILES | Ratio
COc1cc2c(cc1OC)C1=NN(C(=O)Nc3ccc(F)cc3)C(c3ccc(F)cc3)C1C2 (centres undefined) | 16
COc1cc2c(cc1OC)C1=NN(C(=O)Nc3ccc(F)c(Cl)c3)C(c3ccc(F)cc3)C1C2 (centres undefined) | 4

The compounds below were run on Mycobacterium tuberculosis (assay: Antimycobacterial activity against isoniazid-resistant Mycobacterium tuberculosis by agar dilution method).
Format: functional

SMILES | MIC [µM]
COc1cc2c(cc1OC)C1=NN(C(=O)Nc3ccc(F)c(Cl)c3)C(c3ccccc3)C1C2 (centres undefined) | 12.5 (≈ 5.82 µg/mL)
COc1ccc(C2C3Cc4cc(OC)c(OC)cc4C3=NN2C(=O)Nc2ccc(F)c(Cl)c2)cc1 (centres undefined) | 12.5 (≈ 6.2 µg/mL)
COc1cc2c(cc1OC)C1=NN(C(=O)Nc3ccc(F)cc3)C(c3ccncc3)C1C2 (centres undefined) | 6.25 (≈ 2.7 µg/mL)
COc1cc2c(cc1OC)C1=NN(C(=O)Nc3ccc(F)cc3)C(c3ccccc3Cl)C1C2 (centres undefined) | 12.5 (≈ 5.82 µg/mL)
COc1cc2c(cc1OC)C1=NN(C(=O)Nc3ccc(F)cc3)C(c3ccc(F)cc3)C1C2 (centres undefined) | 0.78 (≈ 0.351 µg/mL)
COc1cc2c(cc1OC)C1=NN(C(=O)Nc3ccc(F)cc3)C(c3ccccc3)C1C2 (centres undefined) | 10 (≈ 4.31 µg/mL)
COc1ccc(C2C3Cc4cc(OC)c(OC)cc4C3=NN2C(=O)Nc2ccc(F)cc2)cc1 (centres undefined) | 12.5 (≈ 5.77 µg/mL)
COc1cc2c(cc1OC)C1=NN(C(=O)Nc3ccc(Br)cc3)C(c3ccncc3)C1C2 (centres undefined) | 10 (≈ 4.93 µg/mL)
COc1cc2c(cc1OC)C1=NN(C(=O)Nc3ccc(Br)cc3)C(c3ccccc3Cl)C1C2 (centres undefined) | 10 (≈ 5.27 µg/mL)
COc1cc2c(cc1OC)C1=NN(C(=O)Nc3ccc(Br)cc3)C(c3ccc(F)cc3)C1C2 (centres undefined) | 6.25 (≈ 3.19 µg/mL)
COc1cc2c(cc1OC)C1=NN(C(=O)Nc3ccc(Br)cc3)C(c3ccccc3)C1C2 (centres undefined) | > 10
COc1cc2c(cc1OC)C1=NN(C(=O)Nc3ccc(F)c(Cl)c3)C(c3ccncc3)C1C2 (centres undefined) | 10 (≈ 4.67 µg/mL)
COc1cc2c(cc1OC)C1=NN(C(=O)Nc3ccc(F)c(Cl)c3)C(c3ccccc3Cl)C1C2 (centres undefined) | 12.5 (≈ 6.25 µg/mL)
COc1cc2c(cc1OC)C1=NN(C(=O)Nc3ccc(F)c(Cl)c3)C(c3ccc(F)cc3)C1C2 (centres undefined) | 3.12 (≈ 1.51 µg/mL)
COc1ccc(C2C3Cc4cc(OC)c(OC)cc4C3=NN2C(=O)Nc2ccc(F)c(Cl)c2)cc1OC (centres undefined) | 12.5 (≈ 6.57 µg/mL)
NNC(=O)c1ccncc1 [ISONIAZID] | 12.5 (≈ 1.71 µg/mL)
CO[C@H]1/C=C/O[C@@]2(C)Oc3c(C)c(O)c4c(O)c(c(/C=N/N5CCN(C)CC5)c(O)c4c3C2=O)NC(=O)/C(C)=C\C=C\[C@H](C)[C@H](O)[C@@H](C)[C@@H](O)[C@@H](C)[C@H](OC(C)=O)[C@@H]1C [RIFAMPIN] | 3.12 (≈ 2.57 µg/mL)
